Activity calls are given as the source filed them.
Assays:
Hexokinase HKDC1 = target: T1, Hexokinase HKDC1 (Homo sapiens, UniProt Q2TB90); experiment: activation of HKDC1 glucose phosphorylation – biochemical, W721R variant, dose response (AID 504730); assay type: functional
T1 sequence (Q2TB90 whole entry): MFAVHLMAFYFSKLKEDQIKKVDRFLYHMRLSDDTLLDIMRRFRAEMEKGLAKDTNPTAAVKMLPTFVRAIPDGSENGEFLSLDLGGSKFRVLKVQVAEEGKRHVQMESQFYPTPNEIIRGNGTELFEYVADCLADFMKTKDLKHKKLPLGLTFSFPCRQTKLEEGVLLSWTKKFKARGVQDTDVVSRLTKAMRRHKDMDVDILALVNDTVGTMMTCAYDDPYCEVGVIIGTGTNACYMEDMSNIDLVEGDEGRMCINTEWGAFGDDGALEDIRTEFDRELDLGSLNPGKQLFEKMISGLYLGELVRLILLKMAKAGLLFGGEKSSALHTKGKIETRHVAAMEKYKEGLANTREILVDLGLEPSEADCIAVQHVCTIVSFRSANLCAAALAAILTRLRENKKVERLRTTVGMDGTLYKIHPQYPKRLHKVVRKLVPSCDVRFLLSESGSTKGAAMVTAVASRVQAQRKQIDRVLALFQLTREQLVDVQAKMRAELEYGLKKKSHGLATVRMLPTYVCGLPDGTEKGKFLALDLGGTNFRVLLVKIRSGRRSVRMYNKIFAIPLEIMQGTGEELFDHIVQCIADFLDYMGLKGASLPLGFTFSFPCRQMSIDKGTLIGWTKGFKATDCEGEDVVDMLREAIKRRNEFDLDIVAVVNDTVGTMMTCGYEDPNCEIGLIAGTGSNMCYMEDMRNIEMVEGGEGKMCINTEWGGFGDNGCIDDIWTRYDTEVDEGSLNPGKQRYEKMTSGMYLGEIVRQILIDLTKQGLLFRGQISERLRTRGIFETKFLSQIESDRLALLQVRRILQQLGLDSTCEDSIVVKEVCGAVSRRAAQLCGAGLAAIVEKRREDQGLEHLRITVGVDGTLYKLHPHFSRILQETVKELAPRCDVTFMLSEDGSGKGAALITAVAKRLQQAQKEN

Nonstructural protein 1 = Nonstructural protein 1 (Influenza A virus, UniProt Q194T2); assay type: functional, Influenza A virus (A/California/07/2009(H1N1))
Hexokinase-1 = target: T2, Hexokinase-1 (Homo sapiens, UniProt P19367); experiment: HK1 enzyme activation by HKDC1 hits – biochemical, selectivity assay for HKDC1 activator project, dose response (AID 504762); assay type: functional
T2 sequence (P19367 whole entry): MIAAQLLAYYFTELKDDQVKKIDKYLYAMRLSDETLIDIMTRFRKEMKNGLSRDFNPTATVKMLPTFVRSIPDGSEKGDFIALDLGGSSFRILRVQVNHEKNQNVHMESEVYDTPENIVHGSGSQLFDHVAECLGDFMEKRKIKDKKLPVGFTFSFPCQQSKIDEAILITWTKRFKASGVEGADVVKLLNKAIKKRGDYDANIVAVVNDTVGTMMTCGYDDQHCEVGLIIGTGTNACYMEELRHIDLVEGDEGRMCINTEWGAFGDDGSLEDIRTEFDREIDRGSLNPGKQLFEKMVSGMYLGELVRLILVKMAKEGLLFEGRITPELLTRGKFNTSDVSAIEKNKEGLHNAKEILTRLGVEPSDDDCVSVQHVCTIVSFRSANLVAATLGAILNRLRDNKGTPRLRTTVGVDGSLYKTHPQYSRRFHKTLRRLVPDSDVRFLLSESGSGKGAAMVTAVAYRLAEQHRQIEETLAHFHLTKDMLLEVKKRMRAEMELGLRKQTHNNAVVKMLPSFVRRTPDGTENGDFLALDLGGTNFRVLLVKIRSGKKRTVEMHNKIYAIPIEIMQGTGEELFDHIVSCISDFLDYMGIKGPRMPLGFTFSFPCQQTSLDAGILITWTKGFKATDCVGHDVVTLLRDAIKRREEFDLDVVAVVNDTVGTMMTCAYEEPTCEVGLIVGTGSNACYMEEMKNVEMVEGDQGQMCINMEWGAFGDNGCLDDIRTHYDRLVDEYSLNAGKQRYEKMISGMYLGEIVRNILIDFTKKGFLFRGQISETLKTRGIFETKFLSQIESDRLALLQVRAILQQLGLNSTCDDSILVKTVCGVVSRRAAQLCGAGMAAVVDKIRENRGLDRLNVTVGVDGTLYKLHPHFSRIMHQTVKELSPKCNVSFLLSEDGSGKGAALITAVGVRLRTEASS

[1] = target: Heat shock protein HSP 90-alpha (Homo sapiens, UniProt P07900); assay type: functional, organism-based
[2] = reduction of Shn3 3'UTR-driven luciferase in osteoblasts – cell-based, Clone20 osteoblasts, firefly luciferase, cherry-picked, dose response (AID 624132); assay type: functional;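 also: firefly luciferase luminescence from reporter carrying the Shn3 3'UTR in osteoblasts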
[3] = viability of uninfected HEp-2 cells – cell-based, HTS, cytotoxicity control for RSV inhibitor project, dose response (AID 2410); assay type: functional; details: human respiratory syncytial virus
[4] = target: T3, Runt-related transcription factor 1/Core-binding factor subunit beta (Homo sapiens, UniProt Q01196+Q13951); experiment: disruptors of Runt domain/CBFb-SMMHC interaction – biochemical, FRET, Cerulean-Runt, Venus-CBFb-SMMHC, uHTS, […] (AID 1434); assay type: protein assay
[5] = target: T3, Runt-related transcription factor 1/Core-binding factor subunit beta; experiment: Runt domain/CBFb-SMMHC interaction disruptors – biochemical, TR-FRET (AID 1438); assay type: protein assay
Hexokinase = Hexokinase (Trypanosoma brucei, UniProt Q38C41); experiment: Confirmation assay for inhibitors of Trypanosoma brucei hexokinase 1-Analogue-first series. [Related pubchem assays (depositor defined):AID1430, AID1632, AID2516, AID2560, AID2579, AID2600, AID449725, AID492951]; assay type: functional
[6] = target: Alkaline phosphatase, placental type (Homo sapiens, UniProt P05187); experiment: human placental alkaline phosphatase inhibition – biochemical, luminescence, confirmation (AID 1512); assay type: functional
[7] = target: T4, Alkaline phosphatase, tissue-nonspecific isozyme (Homo sapiens, UniProt P05186); experiment: potency against alkaline phosphatase TNAP – biochemical, luminescent, dose response, SAR follow-up (AID 1056)
T4 sequence (P05186 whole entry): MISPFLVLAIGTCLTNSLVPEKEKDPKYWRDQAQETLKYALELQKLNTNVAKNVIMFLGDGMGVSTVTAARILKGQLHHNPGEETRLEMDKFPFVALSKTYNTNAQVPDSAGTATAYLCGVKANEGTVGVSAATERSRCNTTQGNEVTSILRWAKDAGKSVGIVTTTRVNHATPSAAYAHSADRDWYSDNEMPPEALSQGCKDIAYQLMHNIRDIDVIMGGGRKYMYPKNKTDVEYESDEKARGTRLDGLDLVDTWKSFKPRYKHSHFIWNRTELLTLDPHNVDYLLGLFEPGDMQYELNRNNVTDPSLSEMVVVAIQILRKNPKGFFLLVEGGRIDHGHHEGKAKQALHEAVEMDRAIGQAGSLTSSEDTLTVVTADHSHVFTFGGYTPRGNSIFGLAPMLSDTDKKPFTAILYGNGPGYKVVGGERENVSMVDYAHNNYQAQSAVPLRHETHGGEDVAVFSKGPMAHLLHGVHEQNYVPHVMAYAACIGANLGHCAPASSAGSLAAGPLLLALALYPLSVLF

Large T antigen = Large T antigen (Simian virus 40, UniProt P03070); assay type: functional, Betapolyomavirus macacae;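 also: Confirmatory-stage PubChem screen for compounds that inhibit SV40 T antigen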
Trypsin = Trypsin (Sus scrofa, UniProt P00761); experiment: trypsin protease activity blockade – biochemical, quenched peptide fluorescence, cherry-pick, selectivity assay for Rce1 protease inhibitor project, dose response (AID 488789)
CAAX prenyl protease 2 = CAAX prenyl protease 2 (Saccharomyces cerevisiae S288c, UniProt Q03530); assay type: biochemical
Chain of CAAX prenyl protease 2 (Q03530 whole entry): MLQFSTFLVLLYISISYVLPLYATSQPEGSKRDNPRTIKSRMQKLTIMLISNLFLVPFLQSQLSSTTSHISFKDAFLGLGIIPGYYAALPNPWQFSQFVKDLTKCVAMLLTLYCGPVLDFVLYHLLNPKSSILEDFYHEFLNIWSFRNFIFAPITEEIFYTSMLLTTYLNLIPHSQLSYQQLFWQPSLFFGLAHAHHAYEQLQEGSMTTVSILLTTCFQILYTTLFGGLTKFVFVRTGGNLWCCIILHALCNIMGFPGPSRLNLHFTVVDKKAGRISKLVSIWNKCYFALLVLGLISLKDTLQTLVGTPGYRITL

T3 sequence (Q01196 whole entry, the tested form may be a part): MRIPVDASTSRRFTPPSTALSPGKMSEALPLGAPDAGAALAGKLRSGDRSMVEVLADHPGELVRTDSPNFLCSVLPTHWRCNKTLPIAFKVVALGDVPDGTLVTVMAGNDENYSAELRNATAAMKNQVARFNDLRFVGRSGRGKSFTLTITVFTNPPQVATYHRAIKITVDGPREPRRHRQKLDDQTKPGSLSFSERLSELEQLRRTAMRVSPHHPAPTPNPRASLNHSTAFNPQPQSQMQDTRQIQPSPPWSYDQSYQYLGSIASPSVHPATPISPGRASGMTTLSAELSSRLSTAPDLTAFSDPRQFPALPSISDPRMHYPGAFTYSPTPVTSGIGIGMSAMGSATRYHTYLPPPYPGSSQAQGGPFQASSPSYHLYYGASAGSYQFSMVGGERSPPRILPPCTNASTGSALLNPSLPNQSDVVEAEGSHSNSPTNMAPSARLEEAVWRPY
T3 sequence (Q13951 whole entry, the tested form may be a part): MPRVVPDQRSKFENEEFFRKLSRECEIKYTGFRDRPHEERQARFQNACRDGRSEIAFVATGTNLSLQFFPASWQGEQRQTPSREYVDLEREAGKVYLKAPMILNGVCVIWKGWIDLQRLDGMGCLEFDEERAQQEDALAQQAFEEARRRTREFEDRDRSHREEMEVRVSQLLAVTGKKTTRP
Chain of Nonstructural protein 1 (Q194T2 whole entry): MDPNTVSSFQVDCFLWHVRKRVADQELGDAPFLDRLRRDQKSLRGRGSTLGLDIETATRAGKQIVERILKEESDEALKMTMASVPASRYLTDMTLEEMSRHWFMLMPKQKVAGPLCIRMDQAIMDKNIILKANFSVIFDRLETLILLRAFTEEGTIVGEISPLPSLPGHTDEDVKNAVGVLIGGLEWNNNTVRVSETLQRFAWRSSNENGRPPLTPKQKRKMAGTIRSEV
Chain of Trypsin (P00761 whole entry): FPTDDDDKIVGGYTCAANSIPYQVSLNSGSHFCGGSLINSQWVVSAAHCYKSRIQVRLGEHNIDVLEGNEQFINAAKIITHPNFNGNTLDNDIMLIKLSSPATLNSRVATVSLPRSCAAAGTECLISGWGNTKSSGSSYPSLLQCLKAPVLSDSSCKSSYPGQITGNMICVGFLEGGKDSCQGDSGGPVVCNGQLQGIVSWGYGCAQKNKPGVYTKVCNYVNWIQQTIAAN
Chain of Hexokinase (Q38C41 whole entry): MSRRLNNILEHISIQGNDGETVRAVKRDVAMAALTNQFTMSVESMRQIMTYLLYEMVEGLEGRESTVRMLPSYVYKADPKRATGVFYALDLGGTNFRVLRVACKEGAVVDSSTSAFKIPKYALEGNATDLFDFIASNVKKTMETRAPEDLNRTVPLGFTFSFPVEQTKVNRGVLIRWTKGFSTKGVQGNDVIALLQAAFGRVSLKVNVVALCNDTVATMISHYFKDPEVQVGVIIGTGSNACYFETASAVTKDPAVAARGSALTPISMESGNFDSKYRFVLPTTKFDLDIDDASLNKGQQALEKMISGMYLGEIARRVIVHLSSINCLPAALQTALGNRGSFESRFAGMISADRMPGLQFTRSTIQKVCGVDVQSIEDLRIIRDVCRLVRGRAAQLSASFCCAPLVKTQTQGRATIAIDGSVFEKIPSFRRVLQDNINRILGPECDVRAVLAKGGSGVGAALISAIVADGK
Chain of Alkaline phosphatase, placental type (P05187 whole entry): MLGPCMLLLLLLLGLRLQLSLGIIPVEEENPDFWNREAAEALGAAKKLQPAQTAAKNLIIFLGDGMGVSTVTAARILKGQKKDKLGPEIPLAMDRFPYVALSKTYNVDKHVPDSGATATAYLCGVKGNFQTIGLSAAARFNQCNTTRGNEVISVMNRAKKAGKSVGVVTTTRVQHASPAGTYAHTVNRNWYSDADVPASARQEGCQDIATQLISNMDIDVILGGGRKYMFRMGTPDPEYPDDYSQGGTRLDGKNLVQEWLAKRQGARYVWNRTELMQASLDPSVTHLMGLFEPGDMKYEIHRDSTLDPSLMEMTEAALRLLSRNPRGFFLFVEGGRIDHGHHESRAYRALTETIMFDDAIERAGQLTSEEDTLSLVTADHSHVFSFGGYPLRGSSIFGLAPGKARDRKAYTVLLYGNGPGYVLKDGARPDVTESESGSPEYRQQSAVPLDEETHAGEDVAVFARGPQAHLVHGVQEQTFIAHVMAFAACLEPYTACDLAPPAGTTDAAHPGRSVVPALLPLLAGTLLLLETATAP
Chain of Large T antigen (P03070 whole entry): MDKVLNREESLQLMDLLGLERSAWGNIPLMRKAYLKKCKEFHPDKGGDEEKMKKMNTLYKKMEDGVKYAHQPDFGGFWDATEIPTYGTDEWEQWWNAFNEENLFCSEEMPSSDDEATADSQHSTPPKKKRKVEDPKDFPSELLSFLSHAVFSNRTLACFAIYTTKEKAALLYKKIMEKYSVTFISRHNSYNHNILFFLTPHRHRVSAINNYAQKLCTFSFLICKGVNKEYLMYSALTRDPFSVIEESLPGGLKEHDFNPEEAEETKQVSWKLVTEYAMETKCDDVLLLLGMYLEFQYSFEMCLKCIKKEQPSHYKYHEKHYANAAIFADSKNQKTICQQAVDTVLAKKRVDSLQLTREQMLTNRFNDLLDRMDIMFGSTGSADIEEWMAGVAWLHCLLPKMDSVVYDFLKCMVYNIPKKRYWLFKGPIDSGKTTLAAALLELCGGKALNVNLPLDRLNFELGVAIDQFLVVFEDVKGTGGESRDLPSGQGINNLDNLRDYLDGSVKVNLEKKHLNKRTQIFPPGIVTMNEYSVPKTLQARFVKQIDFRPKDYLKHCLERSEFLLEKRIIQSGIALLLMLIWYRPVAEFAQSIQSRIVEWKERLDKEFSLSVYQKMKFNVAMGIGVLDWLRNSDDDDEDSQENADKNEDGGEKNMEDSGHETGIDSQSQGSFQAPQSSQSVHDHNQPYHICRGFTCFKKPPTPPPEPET

## CC(N/N=C(\S)N1CCN(c2ccccn2)CC1)c1nccc2ccccc12 (centres undefined)
Hexokinase HKDC1
  EC50: 2.19 µM (active)
Nonstructural protein 1
  IC50: 2.43 µM (active)
Hexokinase-1
  EC50: > 80 µM (inactive)
[1]
  AC50: 2.58 µM (active)
[2]
  AC50: < 0.26 µM (active)

## Nc1c(C(=O)NCc2ccco2)c2nc3ccccc3nc2n1CCc1ccccc1F
[3]
  CC50: 24.3 µM (active)
[4]
  IC50: 13.7 µM (active)
[5]
  IC50: 86.3 µM (inactive)

## COC(=O)c1ccc(Cl)cc1NC(=O)c1ccccc1OC
Hexokinase
  IC50: > 25 µM (inactive)

## O=C(NC1(C(F)(F)F)Oc2ccccc2O1)c1ccc(Cl)cc1
[6]
  IC50: > 100 µM (inactive)
[7]
  IC50: > 100 µM (inactive)

## O=C(O)c1ccc(-c2ccc(O)c(F)c2)cc1
Large T antigen
  IC50: 6.76 µM (active)
Trypsin
  AC50: 11.9 µM (active)
CAAX prenyl protease 2
  AC50: > 100 µM (inactive)
